Source: ChEMBL document CHEMBL3039007, “Structure-based identification of OATP1B1/3 inhibitors” (Mol Pharmacol, 2013)
Residues, ends and D or L forms follow the SMILES beside them.

Columns and labels:
[1] = target: T1, Solute carrier organic anion transporter family member 1B1 (Homo sapiens, UniProt Q9Y6L6); conditions: chinese hamster, cho, 10 µM
T1 sequence (Q9Y6L6 whole entry): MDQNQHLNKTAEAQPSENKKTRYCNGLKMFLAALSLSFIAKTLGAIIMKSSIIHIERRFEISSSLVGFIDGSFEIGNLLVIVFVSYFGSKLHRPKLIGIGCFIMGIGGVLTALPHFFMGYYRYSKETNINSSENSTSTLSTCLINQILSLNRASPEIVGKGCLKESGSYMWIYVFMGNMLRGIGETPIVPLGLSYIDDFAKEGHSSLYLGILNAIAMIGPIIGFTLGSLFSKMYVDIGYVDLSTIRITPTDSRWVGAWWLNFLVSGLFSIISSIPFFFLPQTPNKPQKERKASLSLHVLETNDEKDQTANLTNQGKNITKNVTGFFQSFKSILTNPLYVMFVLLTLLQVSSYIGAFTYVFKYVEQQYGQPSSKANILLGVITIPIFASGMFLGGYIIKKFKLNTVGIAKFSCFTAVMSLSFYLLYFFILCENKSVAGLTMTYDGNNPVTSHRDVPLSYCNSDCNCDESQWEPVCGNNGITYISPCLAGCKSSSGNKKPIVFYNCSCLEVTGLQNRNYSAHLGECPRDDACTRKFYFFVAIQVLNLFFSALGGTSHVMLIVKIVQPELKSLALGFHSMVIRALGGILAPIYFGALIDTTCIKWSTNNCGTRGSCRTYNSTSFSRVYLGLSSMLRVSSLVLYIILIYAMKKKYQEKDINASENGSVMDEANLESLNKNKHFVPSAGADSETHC

[2] = target: T2, Solute carrier organic anion transporter family member 1B3 (Homo sapiens, UniProt Q9NPD5); conditions: chinese hamster, cho, 10 µM
T2 sequence (Q9NPD5 whole entry): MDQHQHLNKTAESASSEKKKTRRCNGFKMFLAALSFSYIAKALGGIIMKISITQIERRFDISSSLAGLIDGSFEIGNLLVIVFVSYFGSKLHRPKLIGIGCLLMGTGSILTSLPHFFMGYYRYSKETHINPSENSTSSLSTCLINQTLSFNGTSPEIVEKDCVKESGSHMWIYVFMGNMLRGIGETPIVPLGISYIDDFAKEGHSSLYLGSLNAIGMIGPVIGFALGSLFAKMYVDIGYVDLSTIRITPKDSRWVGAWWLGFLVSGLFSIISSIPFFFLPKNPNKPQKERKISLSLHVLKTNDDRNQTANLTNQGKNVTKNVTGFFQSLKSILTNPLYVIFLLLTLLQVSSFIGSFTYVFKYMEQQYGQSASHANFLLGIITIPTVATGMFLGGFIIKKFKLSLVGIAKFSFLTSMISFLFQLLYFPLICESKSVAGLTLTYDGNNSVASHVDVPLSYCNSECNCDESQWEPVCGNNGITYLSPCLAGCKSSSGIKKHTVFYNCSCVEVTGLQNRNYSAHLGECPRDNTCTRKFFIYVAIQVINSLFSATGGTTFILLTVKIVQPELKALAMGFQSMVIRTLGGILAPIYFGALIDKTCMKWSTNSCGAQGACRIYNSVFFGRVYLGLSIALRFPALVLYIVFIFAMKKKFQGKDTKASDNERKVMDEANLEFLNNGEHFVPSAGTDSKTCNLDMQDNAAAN

SMILES	residual activity [1] [%]	residual activity [2] [%]
C=C(C)C1Cc2c(ccc(C(=O)O)c2O)O1 (configuration not stated) [TUBAIC ACID]	158.2	80.8
NC1=NCCN1CC(=O)O [CYCLOCREATINE]	108.2	127.5
O=C(O)CCCC[C@@H]1SC[C@@H]2NC(=O)N[C@@H]21 [BIOTIN]	93.06	96.7
C[C@]12CC[C@@H]3c4ccc(OS(=O)(=O)[O-])cc4CC[C@H]3[C@@H]1CC[C@@H]2O.[Na+]	53.18	95.65
C#CCCCCCCCCCCCC(=O)CC(O)COC(C)=O (configuration not stated) [AVOCADYNONE ACETATE]	124.8	100.5
Cn1c([N+](=O)[O-])cnc1COC(N)=O [RONIDAZOLE]	103.6	88.05
CC(=O)Nc1ccc(OC(=O)c2ccccc2O)cc1 [ACETAMINOSALOL]	103.1	102.7
CCCCCCOc1ccccc1C(N)=O [EXALAMIDE]	188.8	129.1
O=C1O[C@H](CO)[C@@H](O)[C@H](O)[C@H]1O [GLUCONOLACTONE]	81.83	89.12
Oc1c(Br)cc(Br)c2cccnc12 [BROXYQUINOLINE]	57.32	75.68
CCCC(C)(COC(N)=O)COC(=O)NC(C)C (configuration not stated) [CARISOPRODOL]	106	103.8
CCCNC(C)C(=O)Nc1ccccc1C.Cl (configuration not stated) [PRILOCAINE HYDROCHLORIDE]	87.24	74.6
CCCC(C)C1(CC)C(=O)[N-]C(=S)NC1=O.[Na+] (configuration not stated) [THIOPENTAL SODIUM]	73.02	84.51
COc1cc(OC)c2c(=O)cc(-c3ccccc3)oc2c1 [CHRYSIN DIMETHYL ETHER]	112.1	103.1
COc1cc([S+](C)[O-])ccc1-c1nc2ncccc2[nH]1 (configuration not stated) [SULMAZOLE]	107.4	116.5
O=c1c(-c2ccc(O)cc2)coc2cc(O)ccc12 [DAIDZEIN]	139.3	103.8
CCOc1nc2cccc(C(=O)OC(C)OC(=O)OC3CCCCC3)c2n1Cc1ccc(-c2ccccc2-c2nnn[nH]2)cc1 (configuration not stated) [CANDESARTAN CILEXETIL]	10.55	5.967
CC(C)CCC[C@@H](C)[C@H]1CC[C@H]2[C@@H]3CC[C@@H]4C[C@H](O)CC[C@]4(C)[C@H]3CC[C@]12C [EPICOPROSTEROL]	90.49	97.38
NCCCC[C@H](NC(=O)[C@H](Cc1ccc(O)cc1)NC(=O)[C@@H](N)CCCCN)C(=O)O [LYSYL-TYROSYL-LYSINE ACETATE] (H-Lys-Tyr-Lys-OH)	85.47	124.3
COc1ccc([C@@H](C)C(=O)c2ccc(O)cc2O)cc1 [ANGOLENSIN (R)]	114.1	126.8
C[C@@H]1[C@H]2[C@H](O[C@@H]3O[C@H](CO)[C@@H](O)[C@H](O)[C@H]3O)OC=C(C(=O)O)[C@H]2C[C@@H]1O [LOGANIC ACID]	49.18	99.49
COC(=O)CCCOc1ccc(Cl)cc1Cl	118.1	115.5
O=c1[nH]c2ccccc2n1C1CCN(CCCC(c2ccc(F)cc2)c2ccc(F)cc2)CC1 [PIMOZIDE]	167.9	121.7
COc1ccc2c(c1)OC/C(=C\c1ccc(OC)c(O)c1)C2=O [SAPPANONE A DIMETHYL ETHER]	166.6	136.1
COc1cc(C)c2c(=O)cc(-c3ccccc3)oc2c1 [METHOXYVONE]	231.1	102.8
COc1ccc2c3c([nH]c2c1)C(C)=NCC3 [HARMALINE]	92.56	115.9
